PMC5130005, “Indolin-2-one compounds targeting thioredoxin reductase as potential anticancer drug leads” (Oncotarget, 2016)

Columns and labels:
HCT 116 cells = assay: MTT cell viability assay, HCT 116 cells; format: cell-based; details: Homo sapiens, 72 h, mean ± SD of 3 experiments; for GI50: read-out: GI50 (50% growth inhibition concentration), HCT 116 cells
Protocol: (§1) HCT 116 and MCF-7 cells were seeded in 96-well plates at a density of 1 × 10^4 cells/well and allowed to grow for 20-24 h before addition of test compounds. DMSO stocks of indolin-2-one compounds were serially diluted in medium each time an assay was performed. Cell viability was determined at the time of compound addition (time 0) and after 72 h of compound treatment by reduction of 3-(4,5-dimethylthiazol-2-yl)-2,5-diphenyltetrazolium bromide (MTT) by dehydrogenases in viable cells. MTT was added into each well (final concentration 400 μg/ml) and the plates were incubated for 4 h at 37°C. The supernatants were aspirated and upon solubilization of the formed formazan crystals in DMSO:glycine buffer pH 10.5 (ratio 4:1), absorbance at 550 nm was measured. 50% growth inhibition concentrations (GI50) and 50% lethal concentrations (LC50) values were calculated.

MCF-7 cells = assay: MTT cell viability assay, MCF-7 cells; format: cell-based; details: Homo sapiens, MCF7, 72 h, mean ± SD of 3 experiments; for GI50: read-out: GI50 (50% growth inhibition concentration), MCF-7 cells; for CC50: read-out: LC50 (50% lethal concentration), MCF-7 cells
Protocol: as §1

recombinant rat TrxR [1] = target: T1, recombinant rat TrxR (Rattus norvegicus, UniProt O89049); assay: in vitro TrxR DTNB reduction assay; format: biochemical; details: 30 min incubation, 100 nM recombinant rat TrxR, 200 μM NADPH, read-out: TrxR inhibition IC50
T1 construct: made in house
T1 sequence (O89049 1-499): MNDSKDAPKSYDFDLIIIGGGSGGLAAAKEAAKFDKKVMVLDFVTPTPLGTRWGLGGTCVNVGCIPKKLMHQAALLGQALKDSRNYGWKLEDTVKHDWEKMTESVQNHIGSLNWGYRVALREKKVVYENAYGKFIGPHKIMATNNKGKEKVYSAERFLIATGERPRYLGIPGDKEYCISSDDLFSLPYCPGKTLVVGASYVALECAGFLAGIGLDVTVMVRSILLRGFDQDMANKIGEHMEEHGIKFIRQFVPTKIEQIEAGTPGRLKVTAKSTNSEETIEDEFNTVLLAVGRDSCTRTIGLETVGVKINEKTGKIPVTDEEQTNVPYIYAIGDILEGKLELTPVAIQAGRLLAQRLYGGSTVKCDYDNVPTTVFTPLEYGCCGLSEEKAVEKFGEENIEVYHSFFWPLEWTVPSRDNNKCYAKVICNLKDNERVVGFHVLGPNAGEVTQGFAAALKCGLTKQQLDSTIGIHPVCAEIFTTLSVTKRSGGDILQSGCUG
Protocol: In a volume of 100 μl of 50 mM Tris-HCl pH 7.5, 2 mM EDTA buffer (TE buffer), compounds of concentrations 1-100 μM were incubated with 100 nM recombinant rat TrxR and 200 μM NADPH at room temperature in 96-well plates for 30 and 60 min. The incubation was terminated by addition of 100 μl per well of 10 mM DTNB, 200 μM NADPH solution in TE buffer and immediately followed by measurement of linear increase of absorbance at 412 nm for the initial 2 min using the VersaMax microplate reader (Molecular Devices). The results were expressed as % of TrxR activity of drug-treated sample over that of DMSO control. The 50% inhibition concentration (IC50) values were calculated.

recombinant rat TrxR [2] = target: T1, recombinant rat TrxR; assay: NADPH oxidase activity of recombinant rat TrxR (substrate test); format: biochemical; details: 8 μM juglone, 15 nM TrxR, 250 μM NADPH, 20 min
Protocol: In a volume of 198 μl of 15 nM recombinant rat TrxR and 250 μM NADPH in TE buffer, 2 μl of diluted DMSO stocks of juglone and compounds 4 and 5 was added to final concentrations of 8 μM (for julgone) and 100 μM (for compounds 4 and 5). The consumption of NADPH was immediately monitored at 340 nm for 20 min using the VersaMax microplate reader. The linear decrease in NADPH absorbance was used for calculating NADPH consumption and expressed as % of activity of drug-treated sample over that of DMSO-treated sample.

| SMILES | LC50 (50% lethal concentration) (HCT 116 cells) | GI50 (HCT 116 cells) | GI50 (MCF-7 cells) | CC50 (MCF-7 cells) | IC50 (recombinant rat TrxR [1]) | rate of NADPH consumption of recombinant TrxR (recombinant rat TrxR [2]) |
| --- | --- | --- | --- | --- | --- | --- |
| Cc1ccccc1C(=O)/C=C1/C(=O)N(C)c2ccccc21 [Compound 7] | 27.8 ± 0.8 µM | 12.4 ± 2.1 µM | 17.3 ± 4.6 µM | 27.9 ± 1.5 µM | 19 ± 2.4 µM |  |
| O=C1C=CC(=O)c2c(O)cccc21 [juglone] |  |  |  |  |  | markedly increased |
| CN1C(=O)/C(=C/C(=O)c2cccc(C(F)(F)F)c2)c2ccccc21 [Compound 17] | 26.2 ± 2.1 µM | 16.1 ± 2.2 µM | 17.9 ± 0.4 µM | 89.6 ± 3.6 µM | 34.2 ± 18.2 µM |  |
| CN1C(=O)/C(=C\C(=O)c2ccc(Cl)cc2)c2ccccc21 [Compound 20] | 28.7 ± 2.4 µM | 16.1 ± 2.4 µM | 20.4 ± 3.5 µM | 91.7 ± 2 µM | 15.9 ± 2.9 µM |  |
| CCN1C(=O)/C(=C/C(C)=O)c2ccccc21 [Compound 2] | 9.7 ± 0.1 µM | 4.2 ± 0.5 µM | 7.9 ± 1.7 µM | 25 ± 1.6 µM | 10.2 ± 1.8 µM |  |
| CN1C(=O)/C(=C/C(=O)c2cccc(Cl)c2)c2ccccc21 [Compound 14] | 26.9 ± 1.5 µM | 15.6 ± 1.1 µM | 23 ± 4.5 µM | 84.3 ± 5.8 µM | 18.4 ± 2.2 µM |  |
| CCc1ccc(C(=O)/C=C2/C(=O)N(C)c3ccccc32)cc1 [Compound 10] | 28.8 ± 1.1 µM | 11.9 ± 1.1 µM | 10.4 ± 0.6 µM | 30.4 ± 6.2 µM | 19.1 ± 0.4 µM |  |
| Cc1ccc(C(=O)/C=C2/C(=O)N(C)c3ccccc32)cc1 [Compound 9] | 28.6 ± 0.8 µM | 10.5 ± 1.2 µM | 10.5 ± 0.8 µM | 28.4 ± 0.8 µM | 21.6 ± 4.4 µM |  |
| Cc1cccc(C(=O)/C=C2/C(=O)N(C)c3ccccc32)c1 [Compound 8] | 28 ± 1 µM | 10.4 ± 2.6 µM | 14 ± 0.6 µM | 27.9 ± 0.6 µM | 22.5 ± 0.4 µM |  |
| CN1C(=O)/C(=C/C(=O)c2ccccc2C(F)(F)F)c2ccccc21 [Compound 16] | 27.7 ± 3.1 µM | 19.5 ± 1.3 µM | 15.8 ± 1 µM | 27.7 ± 1.9 µM | 28.9 ± 0.2 µM |  |
| CN1C(=O)/C(=C/C(=O)c2ccc(Cl)cc2)c2ccccc21 [Compound 15] | 28.6 ± 1.4 µM | 12.4 ± 2.8 µM | 20.9 ± 3 µM | 92 ± 1.2 µM | 16.9 ± 3.4 µM |  |
| CN1C(=O)/C(=C/C(=O)c2ccc(C(F)(F)F)cc2)c2ccccc21 [Compound 18] | 90.5 ± 7.3 µM | 15.7 ± 1.7 µM | 44.4 ± 0.1 µM | 89.8 ± 5.1 µM | > 100 µM |  |
| CC(C)c1ccc(C(=O)/C=C2/C(=O)N(C)c3ccccc32)cc1 [Compound 11] | 26.7 ± 1.7 µM | 14.4 ± 1.8 µM | 10.5 ± 1.7 µM | 27 ± 0.4 µM | 25.2 ± 5.4 µM |  |
| CN1C(=O)/C(=C/C(=O)c2ccc(F)cc2)c2ccccc21 [Compound 13] | 29 ± 1.4 µM | 11.9 ± 0.5 µM | 12.5 ± 2.4 µM | 28.6 ± 1.2 µM | 18.7 ± 3.56 µM |  |
| CCCCc1ccc(C(=O)/C=C2/C(=O)N(C)c3ccccc32)cc1 [Compound 12] | 26.7 ± 0.8 µM | 13.5 ± 2.6 µM | 16.5 ± 4 µM | 81.2 ± 9.7 µM | > 100 µM |  |
| CC(=O)/C=C1/C(=O)N(C(C)C)c2ccccc21 [Compound 3] | 9.8 ± 0.1 µM | 5.3 ± 0.1 µM | 7.1 ± 0.6 µM | 22.4 ± 0.6 µM | 15 ± 1.4 µM |  |
